Drawing on PubChem BioAssay (NCI), this text covers GI50 and TGI for 8 compounds.

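Values below derive from 48-hour exposures of cells grown in 96-well plates, with endpoints linearly interpolated between the two concentrations bracketing the appropriate inhibition level. GI50: concentration for 50% inhibition of growth. TGI: total growth inhibition.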

Some test systems named below: ACHN renal; CAKI-1 renal; K-562 leukemia; NCI-H522 lung; OVCAR-4 ovarian; OVCAR-5 ovarian; SK-MEL-2 melanoma; SNB-19 CNS; T-47D breast; UACC-257 melanoma.
Experiment in all cases: inhibition of tumour cell growth, NCI panel, 48 h

For `COc1ccc(-c2nn(-c3cccc(Cl)c3)cc2-c2cc(-c3cccs3)[nH]c(=S)n2)cc1`, the GI50 with ACHN renal was 4.05 µM; with CAKI-1 renal, 3.03 µM; with K-562 leukemia it was 2.91 µM; with NCI-H522 lung, 2.54 µM; with OVCAR-4 ovarian, 3.47 µM; with OVCAR-5 ovarian, 6.38 µM. The GI50 in the assay on SK-MEL-2 melanoma was 2.87 µM; in the assay on SNB-19 CNS, 4.93 µM; in the assay with T-47D breast, 4.16 µM; in the assay with UACC-257 melanoma it was 3.06 µM. For the same compound, the TGI in the assay with ACHN renal is > 100 µM; in the assay on CAKI-1 renal, 8.68 µM; with K-562 leukemia it was > 100 µM; in the assay on NCI-H522 lung, 8.86 µM; in the assay with OVCAR-4 ovarian it was > 100 µM; in the assay on OVCAR-5 ovarian, > 100 µM. Further, the TGI was 6.9 µM in the assay on SK-MEL-2 melanoma, > 100 µM with SNB-19 CNS, 34.6 µM in the assay with T-47D breast and 18 µM with UACC-257 melanoma.

Take `O=C1C(Cl)=C(Nc2cccc(F)c2)C(=O)N1Cc1ccc(Cl)cc1`: the GI50 in the assay on ACHN renal is 2.54 µM; with CAKI-1 renal, 1.71 µM; in the assay on K-562 leukemia, 0.206 µM; in the assay with NCI-H522 lung, 3.09 µM; in the assay with OVCAR-4 ovarian, 4.04 µM; in the assay with OVCAR-5 ovarian, 4.58 µM. In addition, the GI50 was 5.96 µM in the assay with SK-MEL-2 melanoma, 2.57 µM in the assay on SNB-19 CNS, 3.57 µM in the assay on T-47D breast and 3.95 µM with UACC-257 melanoma. Besides, the TGI in the assay on ACHN renal is 15.2 µM; with CAKI-1 renal, 13.8 µM; in the assay on K-562 leukemia it was > 32.1 µM; with NCI-H522 lung it was 13.3 µM; in the assay on OVCAR-4 ovarian, 24.6 µM; in the assay on OVCAR-5 ovarian, 22.4 µM. Further, the TGI in the assay on SK-MEL-2 melanoma was > 28.4 µM; with SNB-19 CNS it was 16.1 µM; in the assay on T-47D breast, 27.7 µM; in the assay on UACC-257 melanoma, 20.8 µM.

For `O=C(Oc1cccc(F)c1OC(=O)c1cccc(O)c1)c1cccc(O)c1`, the GI50 is 23.6 µM with ACHN renal; 7.47 µM in the assay with CAKI-1 renal; 38 µM in the assay on K-562 leukemia; 13.4 µM in the assay on NCI-H522 lung; 15.2 µM in the assay with OVCAR-4 ovarian; > 100 µM in the assay on OVCAR-5 ovarian. Besides, the GI50 in the assay with SK-MEL-2 melanoma was > 100 µM; in the assay with SNB-19 CNS, 99.6 µM; in the assay on T-47D breast it was 23.1 µM; in the assay on UACC-257 melanoma it was 39.8 µM. The TGI with ACHN renal is > 100 µM; in the assay on CAKI-1 renal it was > 100 µM; with K-562 leukemia, > 100 µM; in the assay with NCI-H522 lung, 48.8 µM; in the assay with OVCAR-4 ovarian, > 100 µM; with OVCAR-5 ovarian it was > 100 µM. Besides, the TGI in the assay with SK-MEL-2 melanoma was > 100 µM; in the assay on SNB-19 CNS, > 100 µM; with T-47D breast it was 79.1 µM; in the assay with UACC-257 melanoma, > 100 µM.

With `CC(=O)NC1C(OC[C@@H](CC(=O)N[C@@H](CC(=O)O)CC(=O)N[C@H](CC(=O)N[C@@H](CCCN)CC(=O)N[C@@H](CCCN)CC(=O)N[C@H](CC(N)=O)C(C)C)C(C)C)NC(=O)C[C@@H](N)C(C)C)OC(CO)C(O)C1O` (stereo not given in full), the GI50 in the assay with ACHN renal, in the assay on CAKI-1 renal, in the assay with K-562 leukemia, in the assay with NCI-H522 lung, in the assay on OVCAR-4 ovarian and in the assay on OVCAR-5 ovarian was > 100 µM each time. The GI50 with SK-MEL-2 melanoma, in the assay on SNB-19 CNS, in the assay on T-47D breast and in the assay with UACC-257 melanoma was > 100 µM each time. The TGI in the assay with ACHN renal, in the assay on CAKI-1 renal, in the assay on K-562 leukemia, with NCI-H522 lung, with OVCAR-4 ovarian and with OVCAR-5 ovarian was > 100 µM each time. Also, the TGI in the assay on SK-MEL-2 melanoma, in the assay on SNB-19 CNS, in the assay on T-47D breast and in the assay with UACC-257 melanoma was > 100 µM throughout.

`CCN1C(=O)N(CC)C2C1NN=c1s/c(=C\c3cccc(F)c3)c(=O)n12` (stereo not given): the GI50 was 0.196 µM in the assay with ACHN renal; 0.0711 µM in the assay with CAKI-1 renal; 0.041 µM with K-562 leukemia; 0.228 µM with NCI-H522 lung; 5.37 µM in the assay on OVCAR-4 ovarian; 0.556 µM with OVCAR-5 ovarian. In addition, the GI50 in the assay with SK-MEL-2 melanoma was 1.69 µM; in the assay on SNB-19 CNS it was 0.263 µM; with T-47D breast, 17.4 µM; in the assay on UACC-257 melanoma, 30 µM. Also, the TGI was > 100 µM in the assay on ACHN renal; > 100 µM in the assay with CAKI-1 renal; > 100 µM in the assay on K-562 leukemia; 33.2 µM in the assay on NCI-H522 lung; > 100 µM with OVCAR-4 ovarian; > 100 µM with OVCAR-5 ovarian. Also, the TGI in the assay on SK-MEL-2 melanoma, in the assay on SNB-19 CNS, with T-47D breast and in the assay on UACC-257 melanoma was > 100 µM each time.

On to `OC(Cc1ccncc1)C(Cl)(Cl)Cl` (stereo not given), for which the GI50 in the assay with ACHN renal was > 100 µM; with CAKI-1 renal it was 32.4 µM; with K-562 leukemia, > 100 µM; with NCI-H522 lung, > 100 µM; with OVCAR-4 ovarian, > 100 µM; in the assay on OVCAR-5 ovarian it was > 100 µM. Moreover, the GI50 in the assay with SK-MEL-2 melanoma, in the assay on SNB-19 CNS, with T-47D breast and with UACC-257 melanoma was > 100 µM throughout. The TGI in the assay with ACHN renal, with CAKI-1 renal, in the assay with K-562 leukemia, in the assay on NCI-H522 lung, in the assay on OVCAR-4 ovarian and in the assay with OVCAR-5 ovarian was > 100 µM throughout. Moreover, the TGI in the assay on SK-MEL-2 melanoma, in the assay on SNB-19 CNS, in the assay with T-47D breast and with UACC-257 melanoma was > 100 µM throughout.

On to `COc1ccc(-c2cc3c(c4cc(OC)ccc24)C(=O)OC3=O)cc1`, for which the TGI in the assay with ACHN renal, in the assay on CAKI-1 renal, with K-562 leukemia, in the assay on NCI-H522 lung, in the assay with OVCAR-4 ovarian and with OVCAR-5 ovarian was > 100 µM throughout. Moreover, the TGI in the assay on SK-MEL-2 melanoma, with SNB-19 CNS, in the assay with T-47D breast and in the assay with UACC-257 melanoma was > 100 µM in each case.

On to `C=C(C)[C@@H]1CC[C@]2(C)CC[C@]3(C)[C@H](CC[C@@H]4[C@@]5(C)CC[C@H](O)C(C)(C)[C@@H]5CC[C@]43C)[C@@H]12`, for which the TGI in the assay on ACHN renal was > 100 µM; in the assay with CAKI-1 renal, > 100 µM; in the assay on K-562 leukemia, > 68.8 µM; in the assay on NCI-H522 lung, 55.7 µM; in the assay with OVCAR-4 ovarian, > 100 µM; in the assay with OVCAR-5 ovarian, > 100 µM. Besides, the TGI in the assay on SK-MEL-2 melanoma is > 100 µM; in the assay on SNB-19 CNS, > 62.8 µM; in the assay with T-47D breast, > 100 µM; in the assay with UACC-257 melanoma, > 80.8 µM.
